From patent US7419780B2, “Methods and assays for screening protein targets” (The Trustees of Columbia University in the City of New York, priority 2000, dated 2008)

Legend:
Assay type in all cases: cell-based, S. cerevisiae
Details in all cases: 1 uM small molecule, difference to activity without small molecule, average of two trials
[1] = molecular target: T1, LexA (GSG)2eDHFR / B42 gly6rGR2 (UniProt P06536+P0ABQ4, C656G/F620S); test: β-galactosidase activity assay, strain V499Y
T1 construct: rat Glucocorticoid Receptor (aa 524-795) with point mutations; expressed in transfected cells; host or cells: S. cerevisiae FY250
T1 sequence (P0ABQ4 1-159): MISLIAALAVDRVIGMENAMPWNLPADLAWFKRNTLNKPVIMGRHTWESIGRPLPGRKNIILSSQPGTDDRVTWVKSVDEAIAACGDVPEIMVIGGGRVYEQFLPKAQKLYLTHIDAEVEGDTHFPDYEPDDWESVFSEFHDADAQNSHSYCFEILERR
T1 sequence (P06536 524-795 F620S/C656G limits assumed): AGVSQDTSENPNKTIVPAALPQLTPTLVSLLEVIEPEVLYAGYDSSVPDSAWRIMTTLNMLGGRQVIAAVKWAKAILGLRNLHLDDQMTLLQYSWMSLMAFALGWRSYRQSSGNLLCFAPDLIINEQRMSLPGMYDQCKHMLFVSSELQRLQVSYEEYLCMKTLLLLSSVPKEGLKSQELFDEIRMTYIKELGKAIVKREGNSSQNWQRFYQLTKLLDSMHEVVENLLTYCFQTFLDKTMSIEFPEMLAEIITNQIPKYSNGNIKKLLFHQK
Source text: (§1) Table III explains the components of each strain. Each strain was constructed from the parent yeast strain FY250 and also contains the pMW106 plasmid, which has the LacZ reporter gene that is turned on only in when the LexA DNA binding domain and the B42 activation are brought in tot he vicinity of each other. We use several different strains because we use DHFR from two different species, mDHFR is from murine, while eDHFR is from E. coli. We are asl oable to switch the small moleculebinding domains. For example, the strain containing LexA-eDHFR with B42-rGH2 is a different strain and behaves differently from the strain containing LexA-rGR2 with B42-eDHFR. We also put in short 6 amino acid linkers between the two domains of our protein chimeras and thus these are different strain as well.
(§2) The results in Table IV are averages of two separate trials. Each strain was examined with small molecules and without small molecules. The absolute activity is given as the β-galactisidase activity […]. The average β-galactosidse activity for a strain without small molecule (i.e. the negative control) was about 100 β-galactosidase units.

[2] = molecular target: T2, LexA mDHFR / B42 (GSG)rGR2 (UniProt P00375+P06536, C656G/F620S); test: β-galactosidase activity assay, strain V497Y
T2 construct: rat Glucocorticoid Receptor (aa 524-795) with point mutations; expressed in transfected cells; host or cells: S. cerevisiae FY250
T2 sequence (P00375 1-187): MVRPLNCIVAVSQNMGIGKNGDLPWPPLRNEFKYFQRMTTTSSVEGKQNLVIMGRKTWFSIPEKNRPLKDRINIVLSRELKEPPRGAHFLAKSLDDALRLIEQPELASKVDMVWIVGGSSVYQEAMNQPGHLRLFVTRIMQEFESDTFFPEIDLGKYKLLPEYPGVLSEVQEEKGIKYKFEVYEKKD
T2 sequence (P06536 524-795 F620S/C656G limits assumed): T1 sequence (P06536 524-795 F620S/C656G limits assumed)
Source text: as §1, §2

LexA rGR2 / B42 eDHFR = molecular target: T3, LexA rGR2 / B42 eDHFR (UniProt P06536+P0ABQ4, C656G/F620S); test: β-galactosidase activity assay, strain V505Y
T3 construct: rat Glucocorticoid Receptor (aa 524-795) with point mutations; expressed in transfected cells; host or cells: S. cerevisiae FY250
T3 sequence (P06536 524-795 F620S/C656G limits assumed): T1 sequence (P06536 524-795 F620S/C656G limits assumed)
T3 sequence (P0ABQ4 1-159): T1 sequence (P0ABQ4 1-159)
Source text: as §1, §2

[3] = molecular target: T4, LexA mDHFR / B42 gly6rGR2 (UniProt P00375+P06536, C656G/F620S); test: β-galactosidase activity assay, strain V496Y
T4 construct: rat Glucocorticoid Receptor (aa 524-795) with point mutations; expressed in transfected cells; host or cells: S. cerevisiae FY250
T4 sequence (P00375 1-187): T2 sequence (P00375 1-187)
T4 sequence (P06536 524-795 F620S/C656G limits assumed): T1 sequence (P06536 524-795 F620S/C656G limits assumed)
Source text: as §1, §2

[4] = molecular target: T5, LexA eDHFR / B42 (GSG)rGR2 (UniProt P06536+P0ABQ4, C656G/F620S); test: β-galactosidase activity assay, strain V494Y
T5 construct: rat Glucocorticoid Receptor (aa 524-795) with point mutations; expressed in transfected cells; host or cells: S. cerevisiae FY250
T5 sequence (P0ABQ4 1-159): T1 sequence (P0ABQ4 1-159)
T5 sequence (P06536 524-795 F620S/C656G limits assumed): T1 sequence (P06536 524-795 F620S/C656G limits assumed)
Source text: as §1, §2

[5] = molecular target: T6, LexA rGR2 / B42 (GSG)2eDHFR (UniProt P06536+P0ABQ4, C656G/F620S); test: β-galactosidase activity assay, strain V509Y
T6 construct: expressed in transfected cells; host or cells: S. cerevisiae FY250 with pMW106 lacZ reporter
T6 sequence (P06536 524-795 F620S/C656G limits assumed): T1 sequence (P06536 524-795 F620S/C656G limits assumed)
T6 sequence (P0ABQ4 1-159): T1 sequence (P0ABQ4 1-159)
Source text: as §1, §2

[6] = molecular target: T7, LexA (GSG)2eDHFR / B42 (GSG)rGR2 (UniProt P06536+P0ABQ4, C656G/F620S); test: β-galactosidase activity assay, strain V501Y
T7 construct: rat Glucocorticoid Receptor (aa 524-795) with point mutations; expressed in transfected cells; host or cells: S. cerevisiae FY250
T7 sequence (P0ABQ4 1-159): T1 sequence (P0ABQ4 1-159)
T7 sequence (P06536 524-795 F620S/C656G limits assumed): T1 sequence (P06536 524-795 F620S/C656G limits assumed)
Source text: as §1, §2

[7] = molecular target: T8, LexA (GSG)2rGR2 / B42 mDHFR (UniProt P00375+P06536, C656G/F620S); test: β-galactosidase activity assay, strain V508Y
T8 construct: expressed in transfected cells; host or cells: S. cerevisiae FY250 with pMW106 lacZ reporter
T8 sequence (P06536 524-795 F620S/C656G limits assumed): T1 sequence (P06536 524-795 F620S/C656G limits assumed)
T8 sequence (P00375 1-187): T2 sequence (P00375 1-187)
Source text: as §1, §2

LexA rGR2 / B42 mDHFR = molecular target: T9, LexA rGR2 / B42 mDHFR (UniProt P00375+P06536, C656G/F620S); test: β-galactosidase activity assay, strain V507Y
T9 construct: rat Glucocorticoid Receptor (aa 524-795) with point mutations; expressed in transfected cells; host or cells: S. cerevisiae FY250
T9 sequence (P06536 524-795 F620S/C656G limits assumed): T1 sequence (P06536 524-795 F620S/C656G limits assumed)
T9 sequence (P00375 1-187): T2 sequence (P00375 1-187)
Source text: as §1, §2

LexA mDHFR / B42 rGR2 = molecular target: T10, LexA mDHFR / B42 rGR2 (UniProt P00375+P06536, C656G/F620S); test: β-galactosidase activity assay, strain V495Y
T10 construct: rat Glucocorticoid Receptor (aa 524-795) with point mutations; expressed in transfected cells; host or cells: S. cerevisiae FY250
T10 sequence (P00375 1-187): T2 sequence (P00375 1-187)
T10 sequence (P06536 524-795 F620S/C656G limits assumed): T1 sequence (P06536 524-795 F620S/C656G limits assumed)
Source text: as §1, §2

C[C@@H]1C[C@H]2C3CCC4=CC(=O)C=C[C@]4(C)[C@@]3(F)[C@@H](O)C[C@]2(C)[C@@]1(O)C(=O)NCCSCCCCCCCCSCC[C@H](NC(=O)c1ccc(N(C)Cc2cnc3nc(N)nc(N)c3n2)cc1)C(=O)O (stereo partly shown) [D8M]
B-gal activity [1]: 7012 β-galactosidase units | B-gal activity [2]: 24 β-galactosidase units | B-gal activity (LexA rGR2 / B42 eDHFR): 2532 β-galactosidase units | B-gal activity [3]: −27 β-galactosidase units | B-gal activity [4]: 10568 β-galactosidase units | B-gal activity [5]: 2734 β-galactosidase units | B-gal activity [6]: 6660 β-galactosidase units | B-gal activity [7]: −5 β-galactosidase units | B-gal activity (LexA rGR2 / B42 mDHFR): −6 β-galactosidase units | B-gal activity (LexA mDHFR / B42 rGR2): 38 β-galactosidase units
